The structures appear in SMILES notation. Several values for one entry are separate records, joined by “and”; a condition that tells them apart may be missing. Equal entries are not always repeated. Marks after values point to notes of the source that are not given here.

Results on one compound are retold here after patent publication US10076511B2, “Bisamide derivative of dicarboxylic acid as an agent for stimulating tissue regeneration and recovery of diminished tissue function” (TREAMID GmbH, priority 2015, dated 2018).

For assay [1], the system named is male Wistar rats. Description: Metabolic syndrome model in rats (cafeteria diet). Format: in vivo, rat. An excerpt: Metabolic syndrome was simulated in male Wistar rats (260-280 g) by keeping animals on a high-fat diet (“cafeteria diet”) for 12 weeks. The “cafeteria diet” was balanced according to Current Protocols in Pharmacology [Current Protocols in Pharmacology (2005) Animal Models of Disease//Contributed by Petter Hedlund, Kenshi Matsumoto, and Karl-Erik Andersson]. The diet contained 25-35% of fats and 25-30% of digestible carbohydrates in addition to the standard diet of rodents. Treamid was administered at a dose of 0.5 mg/kg intragastrically once daily, every day from Week 7 to Week 11 of the diet. Reference drug Metformin was administered at a dose of 200 mg/kg intragastrically according to the same regimen.
The development of pathology and a therapeutic effect of Treamid were estimated by the following parameters: blood biochemical parameters (glucose, cholesterol, triglycerides (TG), HDL, LDL, atherogenicity index), glucose tolerance test, visceral fat weight, total number and percentage of motile sperm forms.
Glucose was determined with an OneNouch Select glucometer (Switzerland).
The levels of triglycerides, TCh and HDL were determined by using a diagnostic kit (Olvex Diagnosticum, Russia).
The level of LDL was determined by the formula 2. LDL=TCh−(HDL+TG/2.2) (1),
The atherogenicity index (AI) was calculated by the formula 3. AI=(TCh−HDL)/HDL (2),
The atherogenicity index was calculated for each animal individually, and then the arithmetic mean value of the group was calculated.
For the analysis of sperm, the animals were anesthetized with intraperitoneal injection of a mixture of Zolletil and Xyla (0.2 ml of Zoletil+0.8 ml Xyla) in a volume of 70 μl/100 g of weight. Epididymis was isolated. The epididymis head was cut off from the tail, weighed, 5 incisions were made (to improve the sperm yield), and placed in a tube containing 10 ml of phosphate buffered saline heated to 37° C. The tube was held at 37° C. for 10 minutes. Then, the tube was shaken on a shaker, 20 μl of the liquid was taken, applied to a glass slide heated to 37° C., and the number of motile sperm cells was assessed under a microscope. The calculation was performed up to 100 sperm cells.
The total number of sperm cells in a test tube with epididymis was calculated as follows: 20 μl of the liquid was taken after shaking and added to a tube containing 400 μl of physiological saline. After shaking the tubes, their contents (20 μl) were taken out and introduced into Goryaev chamber. The number of sperm cells was counted in 100 large squares. The number of sperm cells in the head of epididymis was calculated by the formula: Number of sperm cells=number of sperm cells in 100 large squares of Goryaev chamber*0.525(factor from the calculation of the dilution and the volume of Goryaev chamber)/weight of the epididymis head.

For assay [2], the system named is male Wistar rats. Put plainly: Pair-test of sexual behavior, copulatory activity reduced by Synestrol. Format: in vivo, rat. Here is the method: Reduction of copulatory activity caused by androgen deficiency was simulated by administration of Synestrol to male rats.
The model is based on the antagonism of androgenic and estrogenic hormones. The administration of Synestrol to male rats leads to the suppression of the sexual activity in animals.
Experiments were performed on 36 male Wistar rats (3 months of age). For 30 days after the beginning of the experiment, all male rats (except for the intact group (background)) were intramuscularly injected with Synestrol at a dose of 50 U/kg/day. Further, from Day 31 to Day 45 of the experiment, animals of the experimental groups, in addition to Synestrol, were intraperitoneally administered Treamid at a dose of 1.5 mg/kg and reference preparation Tribestan at a dose of 70 mg/kg. The sexual activity was estimated by the pair-test of sexual behavior. For this purpose, female rats in the estrus stage caused by a preliminary 4-fold injection of Synestrol were involved in the experiment. The effectiveness of Treamid was estimated by the following indices: latency until the first mating attempt (LFM), the number of mating attempts (mounts), and the number of ejaculations. The obtained data were compared with those of the same animals before the experiment (the first test) and with the data in the control group (the second test).

Another assay concerns male C57BL/6 mice. Put plainly: Streptozotocin-induced pancreatic lesion model. Format: in vivo, mouse. The following applies: Day 28; Treamid 1 mg/kg.
Setting [3] is: Treamid 0.5 mg/kg, Metformin 200 mg/kg intragastrically Week 7-11 of high-fat diet.
Where [4] appears, read: high-fat diet for 12 weeks, Treamid 0.5 mg/kg, Metformin 200 mg/kg.
Setting [5] is: high-fat diet, Treamid 0.5 mg/kg, Metformin 200 mg/kg.
Where [6] appears, read: First test, Synestrol-treated rats.
The mark [7] stands for this setting: Second test, Treamid 1.5 mg/kg or Tribestan 70 mg/kg intraperitoneally Day 31-45.

Regarding `O=C(CCCC(=O)NCCc1ncc[nH]1)NCCc1ncc[nH]1` [Treamid], the “Glucose level in the blood of male rats, mmol/L” value (shortened to “Glucose level … mmol/L”) with male Wistar rats [1] (3 weeks after the drug administration, Treamid 0.5 mg/kg, Metformin 200 mg/kg) was 6.5 ± 0.2*& mmol/L. In the assay with male Wistar rats [1] (5 weeks after the drug administration, Treamid 0.5 mg/kg, Metformin 200 mg/kg), the “Glucose level … mmol/L” value is reported as 7.8 ± 0.2*& mmol/L. For the same compound, in the assay on male Wistar rats [1] (setting [3]), the “Relative weight of visceral fat, Fat near the intestine” value amounted to 0.94 ± 0.07 % based on body weight; the “Relative weight of visceral fat, Fat near the kidneys” value was 0.48 ± 0.05& % based on body weight; the “Relative weight of visceral fat, Fat near the testes” value is reported as 1.03 ± 0.14 % based on body weight; the “Relative weight of visceral fat, Total fat” value is reported as 2.46 % based on body weight. Moreover, the “reduction of visceral fat weight gain in comparison with the control group” value in the assay on male Wistar rats [1] (Treamid 0.5 mg/kg, Metformin) was found to be 1.3 times. In addition, the “Glucose level in the blood of male rats” value with male Wistar rats [1] (before administration of drugs (Week 6 of diet)) was 6.4 ± 0.2 mmol/L. In addition, in the assay on male Wistar rats [1] (setting [4]), the “HDL, mM/l” value is 1.9±0.2 mM/l and 1.9 ± 0.2& mM/l; the “LDL, mM/l” value was found to be 1.2 ± 0.2 mM/l; the “Total cholesterol, mM/l” value stood at 3.5 ± 0.1 mM/l; the “Triglycerides, mM/l” value turned out to be 0.9 ± 0.1 mM/l. In the assay on male Wistar rats [1] (setting [5]), the “Percentage of motile sperm forms” value is given as 34.43 ± 3.15& % and the “Total number of sperm cells” value is recorded as 260.0 ± 38.7&. In addition, the “Glucose level … mmol/L” value in the assay on male Wistar rats [1] (one week after the drug withdrawal, Treamid 0.5 mg/kg, Metformin 200 mg/kg) was 8.3 ± 0.7& mmol/L. In the assay with male Wistar rats [1] (vs. high-fat diet control), the “increase of the percentage of motile sperm forms” value is 1.5 times and the “increase of the total number of sperm cells” value was 1.7 times. In the assay with male Wistar rats [2] (setting [6]), the “Ejaculating animals, %” value is 0.00%#; the “LFM” value was determined as 373.89 ± 112.89 s; the “The number of mounts, abs.” value is 5.89 ± 1.91 abs. In the assay on male Wistar rats [2] (setting [7]), the “LFM” value is 381.22 ± 115.18 s and the “The number of mounts, abs.” value worked out at 8.00 ± 3.12 abs. Moreover, in the assay with male C57BL/6 mice, the “Total collagen (mg/ml) in the pancreas” value was 41 ± 4 mg/mL and the “Type I collagen (ng/ml) in the pancreas” value is 665 ± 55*• ng/ml.
